Test results: patent US20150094474A1, “AGRICULTURAL CHEMICALS” (Redx Pharma Ltd., priority 2012, published 2015)

Legend:
peas = assay: Herbicidal bioassay, peas (% necrosis); assay type: in vivo
Experimental: (§1) A laboratory bioassay was conducted to screen ten compounds (Fluazifop (25); Ethyl fluazifop (62); five fluazifop analogues: 27, 28, 63, 64 and 65; mesofulfuron (6); and two mesosulfuron analogues: 8 and 61. for activity against Lolium perenne, barley, peas and Chinese cabbage. Compounds were diluted in DMSO. Controls were performed using both DMSO and water.
(§2) Plants were obtained as seeds and were grown to the 2-4 true leaf stage. Plants were grown individually in seed trays. Each plant (in an approximately 3 cm diameter plug) was then detached from the tray for spraying. Environmental conditions were closely monitored and recorded and were within the optimal range of the target species.
(§3) The compounds were screened at a range of six concentrations, eg. 0.05%, 0.01%, 0.005%, 0.001%, 0.0005% and 0.0001%. Treatments will be applied directly onto the plants, using a potter tower.
(§4) One plant of each type will be sprayed using a potter tower. The 4 different types of weeds will be placed in a 10 cm diameter area underneath the potter sprayer and sprayed simultaneously. The growth of the plants and any Phytotoxicity effects will then be assessed at specified growth intervals, according to EPPO guideline PP1/135. Five replicates will be performed for each treatment, for each species.

barley = assay: Herbicidal bioassay, barley (% necrosis); assay type: in vivo
Experimental: as §1, §2, §3, §4

## COc1cc(OC)nc(NC(=O)NS(=O)(=O)c2cc(CNS(C)(=O)=O)ccc2CO)n1 [Compound 8, 1-(4,6-Dimethoxypyrimidin-2-yl)-3-[2-(hydroxymethyl)-5-(methanesulfonamidomethyl)phenyl]sulfonyl-urea]
peas; Dose 0.000001, Day 0
  Sum of % necrosis in Pea: C (less than 50% necrosis)
peas; Dose 0.000001, Day 1
  Sum of % necrosis in Pea: C (less than 50% necrosis)
peas; Dose 0.000001, Day 3
  Sum of % necrosis in Pea: B (50%-80% necrosis)
peas; Dose 0.000001, Day 7
  Sum of % necrosis in Pea: A (over 80% necrosis)
peas; Dose 0.000001, Day 10
  Sum of % necrosis in Pea: A (over 80% necrosis)
peas; Dose 0.000001, Day 14
  Sum of % necrosis in Pea: A (over 80% necrosis)
peas; Dose 0.000005, Day 0
  Sum of % necrosis in Pea: C (less than 50% necrosis)
peas; Dose 0.000005, Day 1
  Sum of % necrosis in Pea: C (less than 50% necrosis)
peas; Dose 0.000005, Day 3
  Sum of % necrosis in Pea: B (50%-80% necrosis)
peas; Dose 0.000005, Day 7
  Sum of % necrosis in Pea: B (50%-80% necrosis)
peas; Dose 0.000005, Day 10
  Sum of % necrosis in Pea: A (over 80% necrosis)
peas; Dose 0.000005, Day 14
  Sum of % necrosis in Pea: A (over 80% necrosis)
peas; Dose 0.00001, Day 0
  Sum of % necrosis in Pea: C (less than 50% necrosis)
peas; Dose 0.00001, Day 1
  Sum of % necrosis in Pea: C (less than 50% necrosis)
peas; Dose 0.00001, Day 3
  Sum of % necrosis in Pea: B (50%-80% necrosis)
peas; Dose 0.00001, Day 7
  Sum of % necrosis in Pea: A (over 80% necrosis)
peas; Dose 0.00001, Day 10
  Sum of % necrosis in Pea: A (over 80% necrosis)
peas; Dose 0.00001, Day 14
  Sum of % necrosis in Pea: A (over 80% necrosis)
peas; Dose 0.00005, Day 0
  Sum of % necrosis in Pea: C (less than 50% necrosis)
peas; Dose 0.00005, Day 1
  Sum of % necrosis in Pea: C (less than 50% necrosis)
peas; Dose 0.00005, Day 3
  Sum of % necrosis in Pea: B (50%-80% necrosis)
peas; Dose 0.00005, Day 7
  Sum of % necrosis in Pea: A (over 80% necrosis)
peas; Dose 0.00005, Day 10
  Sum of % necrosis in Pea: A (over 80% necrosis)
peas; Dose 0.00005, Day 14
  Sum of % necrosis in Pea: A (over 80% necrosis)
peas; Dose 0.0001, Day 0
  Sum of % necrosis in Pea: C (less than 50% necrosis)
peas; Dose 0.0001, Day 1
  Sum of % necrosis in Pea: C (less than 50% necrosis)
peas; Dose 0.0001, Day 3
  Sum of % necrosis in Pea: B (50%-80% necrosis)
peas; Dose 0.0001, Day 7
  Sum of % necrosis in Pea: A (over 80% necrosis)
peas; Dose 0.0001, Day 10
  Sum of % necrosis in Pea: A (over 80% necrosis)
peas; Dose 0.0001, Day 14
  Sum of % necrosis in Pea: A (over 80% necrosis)
peas; Dose 0.0005, Day 0
  Sum of % necrosis in Pea: C (less than 50% necrosis)
peas; Dose 0.0005, Day 1
  Sum of % necrosis in Pea: C (less than 50% necrosis)
peas; Dose 0.0005, Day 3
  Sum of % necrosis in Pea: B (50%-80% necrosis)
peas; Dose 0.0005, Day 7
  Sum of % necrosis in Pea: A (over 80% necrosis)
peas; Dose 0.0005, Day 10
  Sum of % necrosis in Pea: A (over 80% necrosis)
peas; Dose 0.0005, Day 14
  Sum of % necrosis in Pea: A (over 80% necrosis)
barley; Dose 0.000001, Day 0
  Sum of % necrosis in barley: C (less than 50% necrosis)
barley; Dose 0.000001, Day 1
  Sum of % necrosis in barley: C (less than 50% necrosis)
barley; Dose 0.000001, Day 3
  Sum of % necrosis in barley: C (less than 50% necrosis)
barley; Dose 0.000001, Day 7
  Sum of % necrosis in barley: C (less than 50% necrosis)
barley; Dose 0.000001, Day 10
  Sum of % necrosis in barley: C (less than 50% necrosis)
barley; Dose 0.000001, Day 14
  Sum of % necrosis in barley: C (less than 50% necrosis)
barley; Dose 0.000005, Day 0
  Sum of % necrosis in barley: C (less than 50% necrosis)
barley; Dose 0.000005, Day 1
  Sum of % necrosis in barley: C (less than 50% necrosis)
barley; Dose 0.000005, Day 3
  Sum of % necrosis in barley: C (less than 50% necrosis)
barley; Dose 0.000005, Day 7
  Sum of % necrosis in barley: C (less than 50% necrosis)
barley; Dose 0.000005, Day 10
  Sum of % necrosis in barley: C (less than 50% necrosis)
barley; Dose 0.000005, Day 14
  Sum of % necrosis in barley: C (less than 50% necrosis)
barley; Dose 0.00001, Day 0
  Sum of % necrosis in barley: C (less than 50% necrosis)
barley; Dose 0.00001, Day 1
  Sum of % necrosis in barley: C (less than 50% necrosis)
barley; Dose 0.00001, Day 3
  Sum of % necrosis in barley: C (less than 50% necrosis)
barley; Dose 0.00001, Day 7
  Sum of % necrosis in barley: C (less than 50% necrosis)
barley; Dose 0.00001, Day 10
  Sum of % necrosis in barley: C (less than 50% necrosis)
barley; Dose 0.00001, Day 14
  Sum of % necrosis in barley: C (less than 50% necrosis)
barley; Dose 0.00005, Day 0
  Sum of % necrosis in barley: C (less than 50% necrosis)
barley; Dose 0.00005, Day 1
  Sum of % necrosis in barley: C (less than 50% necrosis)
barley; Dose 0.00005, Day 3
  Sum of % necrosis in barley: C (less than 50% necrosis)
barley; Dose 0.00005, Day 7
  Sum of % necrosis in barley: C (less than 50% necrosis)
barley; Dose 0.00005, Day 10
  Sum of % necrosis in barley: C (less than 50% necrosis)
barley; Dose 0.00005, Day 14
  Sum of % necrosis in barley: C (less than 50% necrosis)
barley; Dose 0.0001, Day 0
  Sum of % necrosis in barley: C (less than 50% necrosis)
barley; Dose 0.0001, Day 1
  Sum of % necrosis in barley: C (less than 50% necrosis)
barley; Dose 0.0001, Day 3
  Sum of % necrosis in barley: C (less than 50% necrosis)
barley; Dose 0.0001, Day 7
  Sum of % necrosis in barley: C (less than 50% necrosis)
barley; Dose 0.0001, Day 10
  Sum of % necrosis in barley: C (less than 50% necrosis)
barley; Dose 0.0001, Day 14
  Sum of % necrosis in barley: C (less than 50% necrosis)
barley; Dose 0.0005, Day 0
  Sum of % necrosis in barley: C (less than 50% necrosis)
barley; Dose 0.0005, Day 1
  Sum of % necrosis in barley: C (less than 50% necrosis)
barley; Dose 0.0005, Day 3
  Sum of % necrosis in barley: C (less than 50% necrosis)
barley; Dose 0.0005, Day 7
  Sum of % necrosis in barley: C (less than 50% necrosis)
barley; Dose 0.0005, Day 10
  Sum of % necrosis in barley: C (less than 50% necrosis)
barley; Dose 0.0005, Day 14
  Sum of % necrosis in barley: C (less than 50% necrosis)
